Test results as given in US20090306032A1, “Use of solid lipid nanoparticles Comprising Cholesteryl Propionate and/or Cholesteryl Butyrate” (priority 2005, published 2009).

How the values were obtained:
[1] = tested on: adhesion of polymorphonuclear cells to HUVEC cells; experiment: Adhesion assay, PMN to HUVEC, IL-1β stimulus; assay type: cell-based; settings: Homo sapiens, 4 h, read-out: inhibition of the adhesion
Experimental: (§1) Human umbilical vein endothelial cells (HUVEC cells) were suitably treated, grown to confluence in 24 well plates, washed and maintained for one day in M199 medium supplemented with 10% BCS (Bovine Calf Serum).
(§2) Polymorphonuclear cells (PMN) were prepared from citrated venous blood obtained from healthy volunteers. Polymorphonuclear cells (PMN), at the concentration of 10^7 cells/ml were labeled with fluorescein diacetate (5 μg/ml) for 30 minutes at 37° C., washed with BSS and plated at the concentration of 10^6 cells per well in a final volume of 0.25 ml of BSS.
(§3) The antiadhesive effects of cholesteryl butyrate nanoparticles prepared in example 1 and of sodium butyrate were measured by an adhesion assay. In detail, human polymorphonuclear cells and HUVEC endothelial cells were incubated with increasing concentrations of cholesteryl butyrate or sodium butyrate nanoparticles in presence of a substance, PAF or IL-1β, which induces adhesion of PMN cells to endothelial HUVEC cells. Adhesion was then assessed by fluorescence microimaging.
b) The effect of cholesteryl butyrate nanoparticles prepared in example 1 or of sodium butyrate on adhesion of polymorphonuclear cells to HUVEC cells was also examined in presence of the adhesion stimulus provided by IL-1β (0.05 ng/ml). […]

[2] = tested on: adhesion of polymorphonuclear cells to HUVEC cells; experiment: Adhesion assay, PMN to HUVEC, PAF stimulus; assay type: cell-based; settings: Homo sapiens, 5 min
Experimental: as §1, §2, §3
a) The effect of cholesteryl butyrate nanoparticles prepared as in example 1, or of sodium butyrate, on adhesion of polymorphonuclear cells to HUVEC cells was examined in presence of the adhesion stimulus provided by PAF (10^−7M). […]

Compound: CCCC(=O)[O-].[Na+] [sodium butyrate]
- inhibition at 10 µM [1]: 22%
- IC50 ([2]; read-out: IC50 (inhibition of adhesion)): 400 nM
- inhibition at 10 µM ([2]; read-out: inhibition of the adhesion): 74%
